The text below walks through data of ChEMBL document CHEMBL5154646, “Structure-guided optimization of 1H-imidazole-2-carboxylic acid derivatives affording potent VIM-Type metallo-β-lactamase inhibitors” (Eur J Med Chem, 2022).

Experiment [1] in a line: Inhibition of bacterial recombinant full length C-terminal-TEV-His6-tagged VIM-1 expressed in Escherichia coli Transetta using FC-5 as substrate preincubated with enzyme for 10 mins followed by substrate addition by fluorescence based analysis. On the set-up: species or system Bacteria.
Experiment [2] in a line: Inhibition of bacterial IMP-1 (1 to 246 residues) expressed in Escherichia coli Transetta (DE3) using FC-5 as substrate preincubated with enzyme for 10 mins followed by substrate addition by fluorescence based analysis. On the set-up: species or system Bacteria.
Experiment [3] is described as follows: Inhibition of bacterial recombinant full length N-terminal-TEV-His6-tagged VIM-5 expressed in Escherichia coli Transetta using FC-5 as substrate preincubated with enzyme for 10 mins followed by substrate addition by fluorescence based analysis. Set-up: species or system Bacteria.
The nature of experiment [4]: Inhibition of bacterial VIM-2 (27 to 266 residues) expressed in Escherichia coli Transetta (DE3) using FC-5 as substrate preincubated with enzyme for 10 mins followed by substrate addition by fluorescence based analysis. On the set-up: species or system Bacteria.
Experiment [5] can be described thus: Inhibition of bacterial NDM-1 (1 to 270 residues) expressed in Escherichia coli Transetta (DE3) using FC-5 as substrate preincubated with enzyme for 10 mins followed by substrate addition by fluorescence based analysis. Set-up: species or system Bacteria.
The subject of experiment [6] is Escherichia coli. In words: Potentiation of meropenem-induced antibacterial activity against Escherichia coli C1541 expressing VIM-2 assessed as fold reduction in meropenem MIC at 10 ug/ml incubated for 18 to 20 hrs by CLSI based broth microtiter dilution method. It is filed as functional. To be noted: dose 10 µg/ml; time 18-20 hrs.
In experiment [7] the test system is Escherichia coli. The experiment can be described thus: Potentiation of meropenem-induced antibacterial activity against Escherichia coli C1542 expressing VIM-2 assessed as meropenem MIC at 10 ug/ml incubated for 18 to 20 hrs by CLSI based broth microtiter dilution method (reference value: 16 ug/ml). To be noted: dose 10 µg/ml, time 18-20 hrs. It counts as functional.

The test system of experiment [8] is Escherichia coli. In words: Potentiation of meropenem-induced antibacterial activity against Escherichia coli C1541 expressing IMP-1 assessed as fold reduction in meropenem MIC at 10 ug/ml incubated for 18 to 20 hrs by CLSI based broth microtiter dilution method. The conditions noted are these: dose 10 µg/ml; time 18-20 hrs. It counts as functional.
The test system of experiment [9] is Escherichia coli. The experiment can be described thus: Potentiation of meropenem-induced antibacterial activity against Escherichia coli C1541 expressing IMP-1 assessed as meropenem MIC at 10 ug/ml incubated for 18 to 20 hrs by broth microtiter dilution method (reference value: 32 ug/ml). The conditions noted are these: dose 10 µg/ml, time 18-20 hrs. It is filed as functional.

The test system of experiment [10] is Escherichia coli. In words: Potentiation of meropenem-induced antibacterial activity against Escherichia coli C1542 expressing VIM-2 assessed as fold reduction in meropenem MIC at 10 ug/ml incubated for 18 to 20 hrs by CLSI based broth microtiter dilution method. It counts as functional. To be noted: dose 10 µg/ml; time 18-20 hrs.
For experiment [11], the system named is Escherichia coli. In words: Potentiation of meropenem-induced antibacterial activity against Escherichia coli C1541 expressing VIM-2 assessed as meropenem MIC at 10 ug/ml incubated for 18 to 20 hrs by CLSI based broth microtiter dilution method (reference value: 16 ug/ml). It is filed as functional. To be noted: dose 10 µg/ml, time 18-20 hrs.

pIC50: −log10 of the molar value. Where only a bound is given, the exact number is not on record here.

As to `NC(=O)Cn1ccnc1C(=O)O`, the pIC50 in experiment [1] was less than 3.52; in experiment [2] it was less than 3.52; in experiment [3] it was less than 3.52; in experiment [4], 3.93; in experiment [5], less than 3.52.

`O=C(O)c1ncc(-c2ccccc2)n1Cc1ccccc1`: the pIC50 in experiment [1] is 5.37; in experiment [2], less than 3.52; in experiment [3] it was 6.48; in [4], 7.82; in [5], 4.23. For the same compound, the “fold change (FC)” value amounted to 32 with Escherichia coli [6], 1 in the experiment with Escherichia coli [8] and 16 in the experiment with Escherichia coli [10]. For the same compound, the MIC in the experiment on Escherichia coli [7] came out at 1 µg/mL; in the experiment with Escherichia coli [9], 32 µg/mL; in the experiment with Escherichia coli [11] it was 0.5 µg/mL.

Turning to `O=C(O)c1nc(-c2ccccc2)cn1Cc1ccccc1`, the pIC50 in [1] is less than 3.52; in experiment [2], 5.03; in [3], 4.32; in experiment [4], 4.10; in [5], less than 3.52.

As for `Nc1ccc(Cn2ccnc2C(=O)O)cc1`, the pIC50 in experiment [1] was less than 3.52; in experiment [2], less than 3.52; in experiment [3] it was less than 3.52; in experiment [4], 4.52; in experiment [5], less than 3.52.

Regarding `C=CCCn1cc(C)nc1C(=O)O`, the pIC50 is less than 3.52 in experiment [1]; 5.39 in [2]; 4.04 in experiment [3]; 4.86 in experiment [4]; less than 3.52 in experiment [5].

Regarding `CC(C(=O)O)n1ccnc1C(=O)O` (stereo unspecified), the pIC50 is less than 3.52 in experiment [1]; less than 3.52 in experiment [2]; 4.49 in experiment [3]; 4.28 in experiment [4]; less than 3.52 in experiment [5].

With `C=CCn1ccnc1C(=O)O`, the pIC50 was less than 3.52 in experiment [1]; less than 3.52 in [2]; less than 3.52 in [3]; 4.33 in experiment [4]; less than 3.52 in experiment [5].

Consider `O=C(O)c1nccn1C1CC1`, for which the pIC50 was 4.53 in experiment [1]; less than 3.52 in experiment [2]; 4.33 in experiment [3]; 4.71 in experiment [4]; less than 3.52 in experiment [5].

As to `C[S+]([O-])Cn1ccnc1C(=O)O` (stereo unspecified), the negative logarithm of the IC50 (pIC50) in experiment [1] is less than 3.52; in experiment [2], less than 3.52; in experiment [3], less than 3.52; in [4] it was 4.19; in experiment [5] it was less than 3.52.

As for `Cc1ccc(Cn2ccnc2C(=O)O)cc1`, the pIC50 in experiment [1] was less than 3.52; in experiment [2], less than 3.52; in experiment [3] it was 3.86; in [4], 5.46; in experiment [5], less than 3.52.

Consider `N#CCCCn1ccnc1C(=O)O`, for which the pIC50 in [1] is 4.33; in experiment [2], 4.18; in experiment [3] it was 4.81; in experiment [4], 4.93; in [5] it was less than 3.52.

Turning to `O=C(O)c1nccn1C1CNC1`, the pIC50 is 4.58 in experiment [1]; less than 3.52 in [2]; 3.98 in [3]; 4.17 in [4]; less than 3.52 in experiment [5].

On to `Nn1ccnc1C(=O)O`, for which the pIC50 was less than 3.52 in [1]; less than 3.52 in experiment [2]; 4.51 in experiment [3]; less than 3.52 in [4]; less than 3.52 in experiment [5].

`O=C(O)c1nccn1CCO`: the pIC50 was less than 3.52 in experiment [1]; less than 3.52 in experiment [2]; less than 3.52 in [3]; 4.12 in experiment [4]; less than 3.52 in experiment [5].

As to `O=C(O)c1nccn1Cc1ccc(F)c(F)c1`, the pIC50 in [1] was less than 3.52; in experiment [2], less than 3.52; in experiment [3], 4.83; in experiment [4], 4.80; in experiment [5], less than 3.52.

Turning to `O=C(O)c1nccn1Cc1ccc(Cl)s1`, the pIC50 in [1] is less than 3.52; in experiment [2], 3.96; in [3] it was 5.04; in [4], 5.49; in experiment [5] it was 3.92.

Take `O=C(O)c1nccn1Cc1ccco1`: the pIC50 in experiment [1] is 4.93; in experiment [2] it was 4.99; in experiment [3] it was 4.68; in experiment [4] it was 5.81; in experiment [5], less than 3.52.

For `O=C(O)c1nccn1C1CCCC1`, the negative-log IC50 (pIC50) was 4.11 in [1]; less than 3.52 in [2]; less than 3.52 in [3]; 4.15 in experiment [4]; less than 3.52 in experiment [5].

On to `NCCn1ccnc1C(=O)O`, for which the negative logarithm of the IC50 (pIC50) in [1], in experiment [2], in experiment [3], in experiment [4] and in experiment [5] was less than 3.52 throughout.

In the case of `O=C(O)c1nccn1Cc1ccoc1`, the pIC50 in experiment [1] is less than 3.52; in experiment [2], less than 3.52; in experiment [3] it was less than 3.52; in [4], 4.37; in [5], less than 3.52.

As for `CCC(C)n1ccnc1C(=O)O` (stereo unspecified), the pIC50 in experiment [1] is 4.67; in [2] it was less than 3.52; in experiment [3] it was 4.50; in experiment [4], 5.69; in [5], less than 3.52.

Regarding `Cn1cc(Cn2ccnc2C(=O)O)cn1`, the pIC50 in experiment [1] is less than 3.52; in [2], less than 3.52; in [3], 4.08; in experiment [4], 4.48; in [5], less than 3.52.

Turning to `CC(C)Cn1ccnc1C(=O)O`, the pIC50 is 4.64 in experiment [1]; less than 3.52 in experiment [2]; 5.15 in experiment [3]; 5.96 in [4]; less than 3.52 in [5].

For `CSCn1ccnc1C(=O)O`, the negative-log IC50 (pIC50) in [1] is 4.75; in experiment [2], 3.94; in experiment [3], 4.19; in experiment [4], 5.16; in experiment [5] it was less than 3.52.

`O=C(O)c1nccn1Cc1ccccn1`: the pIC50 in [1] is less than 3.52; in experiment [2], less than 3.52; in [3], less than 3.52; in experiment [4], 5.26; in [5], less than 3.52.

As to `O=C(O)c1nccn1C1COC1`, the pIC50 in experiment [1], in experiment [2], in experiment [3], in experiment [4] and in [5] was less than 3.52 each time.

Regarding `O=C(O)c1nccn1Cc1cccnc1Cl`, the pIC50 is 4.52 in experiment [1]; less than 3.52 in experiment [2]; 4.66 in experiment [3]; 6.11 in [4]; less than 3.52 in experiment [5].

As for `O=C(O)c1nccn1CCn1ccnn1`, the pIC50 was less than 3.52 in experiment [1]; less than 3.52 in experiment [2]; 4.33 in experiment [3]; 5.18 in experiment [4]; less than 3.52 in [5].

With `CC(C)n1ccnc1C(=O)O`, the pIC50 in [1] is 4.67; in [2], less than 3.52; in [3] it was 3.88; in [4], 5.00; in experiment [5] it was less than 3.52.

In the case of `Cn1ccnc1C(=O)O`, the pIC50 in [1] is 3.64; in [2], less than 3.52; in experiment [3], less than 3.52; in experiment [4], less than 3.52; in experiment [5] it was less than 3.52.

For the compound `COC(=O)C(C)n1ccnc1C(=O)O` (stereo unspecified), the pIC50 in experiment [1], in experiment [2], in experiment [3], in experiment [4] and in [5] was less than 3.52 in each case.

On to `O=C(O)c1ncc[nH]1`, for which the pIC50 in experiment [1] was less than 3.52; in [2], less than 3.52; in experiment [3], 4.51; in [4], 4.18; in [5], less than 3.52.

As for `O=C(O)c1nccn1Cc1cccs1`, the pIC50 in experiment [1] was 4.30; in experiment [2] it was 4.00; in experiment [3] it was 4.54; in experiment [4] it was 5.57; in [5], less than 3.52.

Turning to `O=C(O)c1ncc(C2CC2)n1Cc1ccccc1`, the pIC50 in experiment [1] was 4.81; in [2], 3.96; in [3] it was 6.74; in [4], 6.89; in [5] it was 4.47.

On to `O=C(O)c1nccn1C1CCC1`, for which the pIC50 in experiment [1] is 4.49; in experiment [2], 3.79; in [3], less than 3.52; in experiment [4], 4.93; in experiment [5], less than 3.52.

As for `O=C(O)c1nc(C2CC2)cn1Cc1ccccc1`, the negative-log IC50 (pIC50) in experiment [1] is less than 3.52; in experiment [2], 4.75; in [3] it was less than 3.52; in experiment [4], 4.94; in [5], less than 3.52.
